The assay concerns the target D2 receptor (Homo sapiens, UniProt P14416). Put plainly: [3H]Thymidine uptake assay for D2 intrinsic activity. In kind it is cell-based. The following applies: test compound 1 μM, 1 μM Quinpirole = 100% intrinsic activity.

Sequence of D2 receptor (P14416 whole entry): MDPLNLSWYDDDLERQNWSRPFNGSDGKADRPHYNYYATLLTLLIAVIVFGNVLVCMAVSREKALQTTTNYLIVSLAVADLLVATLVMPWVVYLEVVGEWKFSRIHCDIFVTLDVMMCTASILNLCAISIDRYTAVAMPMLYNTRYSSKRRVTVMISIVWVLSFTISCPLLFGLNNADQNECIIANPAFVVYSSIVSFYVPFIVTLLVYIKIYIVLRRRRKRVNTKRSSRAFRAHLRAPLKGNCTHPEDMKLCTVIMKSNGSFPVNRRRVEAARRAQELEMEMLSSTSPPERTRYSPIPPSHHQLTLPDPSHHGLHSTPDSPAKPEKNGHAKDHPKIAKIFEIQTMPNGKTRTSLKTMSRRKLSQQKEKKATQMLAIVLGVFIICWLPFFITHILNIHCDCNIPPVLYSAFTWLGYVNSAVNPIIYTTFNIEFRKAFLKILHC

Usually Emax stands for the maximal effect, on the per cent scale that the assay sets. As for `CC1C=Cc2cccc(N3CCN(CCCCOc4ccc5ccc(=O)[nH]c5n4)CC3)c2O1` (stereo not shown) [Example B4′, 7-{4-[4-(2-Methyl-2H-chromen-8-yl)-piperazin-1-yl]-butoxy}-1H-[1,8]naphthyridin-2-one], the maximum response (Emax) at 1 µM (Table 2) came to 28%.

`CC(=O)c1c(F)cccc1N1CCN(CCCCOc2ccc3ccc(=O)[nH]c3n2)CC1` [Example B5, 7-{4-[4-(2-Acetyl-3-fluoro-phenyl)-piperazin-1-yl]-butoxy}-1H-[1,8]naphthyridin-2-one] yielded an Emax at 1 µM (Table 1) of 2%.

The compound `O=c1ccc2ccc(OCCCCN3CCN(c4cccc5c4OC4(C=C5)CCCC4)CC3)nc2[nH]1` [Example B6′, 7-{4-[4-(Spiro[chromene-2,1′-cyclopentan]-8-yl)-piperazin-1-yl]-butoxy}-1H-[1,8]naphthyridin-2-one] came in with an Emax at 1 µM (Table 2) of 33%.

For `Cc1cc(N2CCN(CCCCOc3ccc4ccc(=O)[nH]c4n3)CC2)c(Cl)cc1F` [Example B7, 7-{4-[4-(2-Chloro-4-fluoro-5-methyl-phenyl)-piperazin-1-yl]-butoxy}-1H-[1,8]naphthyridin-2-one], the Emax at 1 µM (Table 1) turned out to be 28%.

On to `O=c1ccc2ccc(OCCCCN3CCN(c4cccc5c4OC4(CCCC4)CC5)CC3)nc2[nH]1` [Example B7′, 7-{4-[4-(3,4-Dihydrospiro[chromene-2,1′-cyclopentan]-8-yl)-piperazin-1-yl]-butoxy}-1H-[1,8]naphthyridin-2-one], for which the Emax at 1 µM (Table 2) turned out to be 48%.

Turning to `Cc1c(F)ccc(N2CCN(CCCCOc3ccc4ccc(=O)[nH]c4n3)CC2)c1Cl` [Example B8, 7-{4-[4-(2-Chloro-4-fluoro-3-methyl-phenyl)-piperazin-1-yl]-butoxy}-1H-[1,8]naphthyridin-2-one], the Emax at 1 µM (Table 1) amounted to 17%.

Where the note is “Table 2”, `O=c1ccc2ccc(OCCCCN3CCN(c4cccc5c4OCC5)CC3)nc2[nH]1` [Example B8′, 7-{4-[4-(2,3-Dihydro-benzofuran-7-yl)-piperazin-1-yl]-butoxy}-1H-[1,8]naphthyridin-2-one] showed an Emax at 1 µM of 21%.

`CC(C)Oc1ccc(Cl)cc1N1CCN(CCCCOc2ccc3ccc(=O)[nH]c3n2)CC1` [Example B9, 7-{4-[4-(5-Chloro-2-isopropoxy-phenyl)-piperazin-1-yl]-butoxy}-1H-[1,8]naphthyridin-2-one]: the Emax at 1 µM (Table 1) is 23%.

With `CC1(C)Cc2cccc(N3CCN(CCCCOc4ccc5ccc(=O)[nH]c5n4)CC3)c2O1` [Example B9′, 7-{4-[4-(2,2-Dimethyl-2,3-dihydro-benzofuran-7-yl)-piperazin-1-yl]-butoxy}-1H-[1,8]naphthyridin-2-one], the Emax at 1 µM (Table 2) came out at 40%.

For the setting “Table 1”, `CC(C)Oc1ccccc1N1CCN(CCCCOc2ccc3ccc(=O)[nH]c3n2)CC1` [Example B10, 7-{4-[4-(2-Isopropoxy-phenyl)-piperazin-1-yl]-butoxy}-1H-[1,8]naphthyridin-2-one] yielded an Emax at 1 µM of 34%.

Under “Table 2”, `O=c1ccc2ccc(OCCCCN3CCN(c4cccc5c4CCCO5)CC3)nc2[nH]1` [Example B10′, 7-[4-(4-Chroman-5-yl-piperazin-1-yl)-butoxy]-1H-[1,8]naphthyridin-2-one] showed an Emax at 1 µM of 22%.

`CC(C)COc1ccccc1N1CCN(CCCCOc2ccc3ccc(=O)[nH]c3n2)CC1` [Example B11, 7-{4-[4-(2-Isobutoxy-phenyl)-piperazin-1-yl]-butoxy}-1H-[1,8]naphthyridin-2-one] yielded an Emax at 1 µM (Table 1) of 31%.

For `O=c1ccc2ccc(OCCCCN3CCN(c4cccc5c4CCO5)CC3)nc2[nH]1` [Example B11′, 7-{4-[4-(2,3-Dihydro-benzofuran-4-yl)-piperazin-1-yl]-butoxy}-1H-[1,8]naphthyridin-2-one], the maximal effect (Emax) at 1 µM (Table 2) is 21%.

`O=c1ccc2ccc(OCCCCN3CCN(c4cccc5c4OCCO5)CC3)nc2[nH]1` [Example B12′, 7-{4-[4-(2,3-Dihydro-benzo[1,4]dioxin-5-yl)-piperazin-1-yl]-butoxy}-1H-[1,8]naphthyridin-2-one] gave an Emax at 1 µM (Table 2) of 24%.

Compound `O=c1ccc2ccc(OCCCCN3CCN(c4ccc(F)cc4)CC3)nc2[nH]1` [Example B13, 7-{4-[4-(4-Fluoro-phenyl)-piperazin-1-yl]-butoxy}-1H-[1,8]naphthyridin-2-one] came in with an Emax at 1 µM (Table 1) of 45%.

In turn, `O=c1ccc2ccc(OCCCCN3CCN(c4cccc5c4OC(F)(F)O5)CC3)nc2[nH]1` [Example B13′, 7-{4-[4-(2,2-Difluoro-benzo[1,3]dioxol-4-yl)-piperazin-1-yl]-butoxy}-1H-[1,8]naphthyridin-2-one] returned an Emax at 1 µM (Table 2) of 33%.

For `O=c1ccc2ccc(OCCCCN3CCN(c4ccc(F)c(Cl)c4)CC3)nc2[nH]1` [Example B14, 7-{4-[4-(3-Chloro-4-fluoro-phenyl)-piperazin-1-yl]-butoxy}-1H-[1,8]naphthyridin-2-one], the Emax at 1 µM (Table 1) came out at 37%.

Where the note is “Table 1”, `O=c1ccc2ccc(OCCCCN3CCN(c4cccc(C(F)(F)F)c4)CC3)nc2[nH]1` [Example B15, 7-{4-[4-(3-Trifluoromethyl-phenyl)-piperazin-1-yl]-butoxy}-1H-[1,8]naphthyridin-2-one] came in with an Emax at 1 µM of 17%.

For the compound `O=c1ccc2ccc(OCCCCN3CCN(c4ccccc4C(F)(F)F)CC3)nc2[nH]1` [Example B16, 7-{4-[4-(2-Trifluoromethyl-phenyl)-piperazin-1-yl]-butoxy}-1H-[1,8]naphthyridin-2-one], the maximal response (Emax) at 1 µM (Table 1) is 41%.

Consider `CC1(C)COc2c(cccc2N2CCN(CCCCOc3ccc4ccc(=O)[nH]c4n3)CC2)C1=O` [Example B16′, 7-{4-[4-(3,3-Dimethyl-4-oxo-chroman-8-yl)-piperazin-1-yl]-butoxy}-1H-[1,8]naphthyridin-2-one], for which the Emax at 1 µM (Table 2) is 4%.

As to `CC(F)(F)c1ccccc1N1CCN(CCCCOc2ccc3ccc(=O)[nH]c3n2)CC1` [Example B17, 7-(4-{4-[2-(1,1-Difluoro-ethyl)-phenyl]-piperazin-1-yl}-butoxy)-1H-[1,8]naphthyridin-2-one], the Emax at 1 µM (Table 1) was 43%.

Consider `COc1cccc(N2CCN(CCCCOc3ccc4ccc(=O)[nH]c4n3)CC2)c1Cl` [Example B18, 7-{4-[4-(2-Chloro-3-methoxy-phenyl)-piperazin-1-yl]-butoxy}-1H-[1,8]naphthyridin-2-one], for which the maximal effect (Emax) at 1 µM (Table 1) is 32%.

Take `O=c1ccc2ccc(OCCCCN3CCN(c4cccc5c4OCCCO5)CC3)nc2[nH]1` [Example B20′, 7-{4-[4-(3,4-Dihydro-2H-benzo[b][1,4]dioxepin-6-yl)-piperazin-1-yl]-butoxy}-1H-[1,8]naphthyridin-2-one]: where the note is “Table 2”, the Emax at 1 µM was 16%.

On to `O=c1ccc2ccc(OCCCCN3CCN(c4cccc5cccnc45)CC3)nc2[nH]1` [Example B21′, 7-[4-(4-Quinolin-8-yl-piperazin-1-yl)-butoxy]-1H-[1,8]naphthyridin-2-one], for which the Emax at 1 µM (Table 2) was found to be 18%.

`O=c1ccc2ccc(OCCCCN3CCN(c4cccc(Cl)c4F)CC3)nc2[nH]1` [Example B22, 7-{4-[4-(3-Chloro-2-fluoro-phenyl)-piperazin-1-yl]-butoxy}-1H-[1,8]naphthyridin-2-one] returned a maximal effect (Emax) at 1 µM (Table 1) of 36%.

`O=c1ccc2ccc(OCCCCN3CCN(c4cccc5ncccc45)CC3)nc2[nH]1` [Example B22′, 7-[4-(4-Quinolin-5-yl-piperazin-1-yl)-butoxy]-1H-[1,8]naphthyridin-2-one] yielded an Emax at 1 µM (Table 2) of 12%.

In turn, `O=c1ccc2ccc(OCCCCN3CCN(c4ccc(F)cc4Cl)CC3)nc2[nH]1` [Example B23, 7-{4-[4-(2-Chloro-4-fluoro-phenyl)-piperazin-1-yl]-butoxy}-1H-[1,8]naphthyridin-2-one] returned a maximal effect (Emax) at 1 µM (Table 1) of 15%.

As to `O=c1ccc2ccc(OCCCCN3CCN(c4cccc5nccnc45)CC3)nc2[nH]1` [Example B23′, 7-[4-(4-Quinoxalin-5-yl-piperazin-1-yl)-butoxy]-1H-[1,8]naphthyridin-2-one], the Emax at 1 µM (Table 2) was 21%.

The compound `O=c1ccc2ccc(OCCCCN3CCN(c4ccc(F)c(Cl)c4Cl)CC3)nc2[nH]1` [Example B24, 7-{4-[4-(2,3-Dichloro-4-fluoro-phenyl)-piperazin-1-yl]-butoxy}-1H-[1,8]naphthyridin-2-one] yielded a maximal effect (Emax) at 1 µM (Table 1) of 10%.

For the setting “Table 2”, `O=c1ccc2ccc(OCCCCN3CCN(c4cccc5[nH]ccc45)CC3)nc2[nH]1` [Example B24′, 7-{4-[4-(1H-Indol-4-yl)-piperazin-1-yl]-butoxy}-1H-[1,8]naphthyridin-2-one] showed a maximal effect (Emax) at 1 µM of 42%.

`O=c1ccc2ccc(OCCCCN3CCN(c4cccc5sccc45)CC3)nc2[nH]1` [Example B25′, 7-[4-(4-Benzo[b]thiophen-4-yl-piperazin-1-yl)-butoxy]-1H-[1,8]naphthyridin-2-one] had an Emax at 1 µM (Table 2) of 21%.

Consider `O=c1ccc2ccc(OCCCCN3CCN(c4ccccc4-c4ccccc4)CC3)nc2[nH]1` [Example B26, 7-[4-(4-Biphenyl-2-yl-piperazin-1-yl)-butoxy]-1H-[1,8]naphthyridin-2-one], for which the Emax at 1 µM (Table 1) was determined as 23%.

Take `O=c1ccc2ccc(OCCCCN3CCN(c4cccc5ccoc45)CC3)nc2[nH]1` [Example B26′, 7-[4-(4-Benzofuran-7-yl-piperazin-1-yl)-butoxy]-1H-[1,8]naphthyridin-2-one]: under “Table 2”, the Emax at 1 µM was found to be 26%.

For the setting “Table 1”, `COc1cccc(N2CCN(CCCCOc3ccc4ccc(=O)[nH]c4n3)CC2)c1C` [Example B27, 7-{4-[4-(3-Methoxy-2-methyl-phenyl)-piperazin-1-yl]-butoxy}-1H-[1,8]naphthyridin-2-one] yielded an Emax at 1 µM of 47%.

Where the note is “Table 2”, `CC(=O)N1CCCc2c(N3CCN(CCCCOc4ccc5ccc(=O)[nH]c5n4)CC3)cccc21` [Example B27′, 7-{4-[4-(1-Acetyl-1,2,3,4-tetrahydro-quinolin-5-yl)-piperazin-1-yl]-butoxy}-1H-[1,8]naphthyridin-2-one] came in with a maximal effect (Emax) at 1 µM of 34%.

On to `O=c1ccc2ccc(OCCCCN3CCN(c4cccc(F)c4Cl)CC3)nc2[nH]1` [Example B28, 7-{4-[4-(2-Chloro-3-fluoro-phenyl)-piperazin-1-yl]-butoxy}-1H-[1,8]naphthyridin-2-one], for which the Emax at 1 µM (Table 1) came out at 31%.

Compound `CN1CCCc2c1cccc2N1CCN(CCCCOc2ccc3ccc(=O)[nH]c3n2)CC1` [Example B28′, 7-{4-[4-(1-Methyl-1,2,3,4-tetrahydro-quinolin-5-yl)-piperazin-1-yl]-butoxy}-1H-[1,8]naphthyridin-2-one] registered a maximum response (Emax) at 1 µM (Table 2) of 44%.

For the origin of these results see patent US7160888B2, “[1,8]naphthyridin-2-ones and related compounds for the treatment of schizophrenia” (Warner Lambert Company LLC, priority 2003, dated 2007).
